Results from ChEMBL document CHEMBL4190286, “Modulating the Serotonin Receptor Spectrum of Pulicatin Natural Products” (J Nat Prod, 2017).

Each compound was assayed against T1, 5-hydroxytryptamine receptor 2B (Homo sapiens, UniProt P41595) (assay: Displacement of [3H]-LSD from human 5-HT2B receptor expressed in HEK cells after 90 mins by microbeta scintillation counting analysis).
T1 sequence (P41595 whole entry): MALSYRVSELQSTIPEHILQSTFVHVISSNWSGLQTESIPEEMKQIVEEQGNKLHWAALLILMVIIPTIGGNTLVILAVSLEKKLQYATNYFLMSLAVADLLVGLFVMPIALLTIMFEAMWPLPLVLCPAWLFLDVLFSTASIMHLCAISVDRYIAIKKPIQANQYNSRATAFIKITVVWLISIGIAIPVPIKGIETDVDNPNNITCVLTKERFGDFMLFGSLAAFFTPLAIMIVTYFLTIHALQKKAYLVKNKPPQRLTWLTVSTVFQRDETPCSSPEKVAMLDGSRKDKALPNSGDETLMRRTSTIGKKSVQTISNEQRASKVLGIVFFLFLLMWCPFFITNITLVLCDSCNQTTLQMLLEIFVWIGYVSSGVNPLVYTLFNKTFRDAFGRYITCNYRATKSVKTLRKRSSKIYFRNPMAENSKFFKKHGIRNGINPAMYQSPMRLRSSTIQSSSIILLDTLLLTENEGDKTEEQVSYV
Type: cell-based
`COC(=O)[C@H](Cc1cnc[nH]1)NC(=O)[C@@H]1N=C(c2ccccc2O)S[C@@H]1C` was tested, and the Ki was 1.4 µM.
With `CNc1ccccc1C1=N[C@@H](CO)[C@H](C)S1` (relative stereo) the Ki was 1.2 µM.
For `Oc1ccccc1C1=N[C@@H]2CCC[C@@H]2S1` (racemic), the Ki was > 10 µM.
In the case of `C[C@@H]1SC(c2ccccc2)=N[C@@H]1Cc1c[nH]cn1` (relative stereo), the Ki is reported as 0.69 µM.
Compound `C[C@H]1SC(c2ccccc2O)=N[C@H]1CO` has a Ki of 0.4 µM.

These compounds were tested against 5-hydroxytryptamine receptor 1B (Homo sapiens, UniProt P28222) (assay: Displacement of [3H]5-CT from human 5-HT1B receptor expressed in HEK cells after 90 mins by microbeta scintillation counting analysis).
5-hydroxytryptamine receptor 1B, sequence (P28222 whole entry): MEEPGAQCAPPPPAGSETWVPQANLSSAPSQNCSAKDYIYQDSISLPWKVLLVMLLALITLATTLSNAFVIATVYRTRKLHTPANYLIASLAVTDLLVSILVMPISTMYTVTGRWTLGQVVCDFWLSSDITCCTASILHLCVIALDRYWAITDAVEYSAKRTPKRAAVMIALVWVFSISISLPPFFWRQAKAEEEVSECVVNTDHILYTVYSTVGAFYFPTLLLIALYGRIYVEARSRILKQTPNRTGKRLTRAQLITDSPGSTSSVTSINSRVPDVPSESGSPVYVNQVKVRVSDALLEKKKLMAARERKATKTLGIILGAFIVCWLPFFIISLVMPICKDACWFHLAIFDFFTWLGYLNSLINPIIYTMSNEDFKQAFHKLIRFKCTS
Type: cell-based
For `CNc1ccccc1C1=N[C@@H](CO)[C@H](C)S1` (relative stereo), the Ki was > 10 µM.
For `Oc1ccccc1C1=N[C@@H]2CCC[C@@H]2S1` (racemic), the Ki was > 10 µM.

These compounds were tested against 5-hydroxytryptamine receptor 1D (Homo sapiens, UniProt P28221) (assay: Displacement of [3H]5-CT from human 5-HT1D receptor expressed in HEKT cells after 90 mins by microbeta scintillation counting analysis).
5-hydroxytryptamine receptor 1D, sequence (P28221 whole entry): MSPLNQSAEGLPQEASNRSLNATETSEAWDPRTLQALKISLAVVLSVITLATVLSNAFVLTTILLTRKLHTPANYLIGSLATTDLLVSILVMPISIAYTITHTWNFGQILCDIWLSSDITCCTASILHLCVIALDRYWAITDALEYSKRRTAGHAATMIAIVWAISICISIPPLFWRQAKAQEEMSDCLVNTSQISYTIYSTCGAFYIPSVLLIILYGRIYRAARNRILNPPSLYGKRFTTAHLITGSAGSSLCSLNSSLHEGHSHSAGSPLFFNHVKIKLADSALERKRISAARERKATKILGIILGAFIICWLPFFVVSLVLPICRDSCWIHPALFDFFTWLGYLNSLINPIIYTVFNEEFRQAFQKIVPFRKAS
Type: cell-based
`COC(=O)[C@H](Cc1cnc[nH]1)NC(=O)[C@@H]1N=C(c2ccccc2O)S[C@@H]1C` showed a Ki of 0.53 µM.
With `CNc1ccccc1C1=N[C@@H](CO)[C@H](C)S1` (relative stereo) the Ki was 8.5 µM.
`Oc1ccccc1C1=N[C@@H]2CCC[C@@H]2S1` (racemic) was tested, and the Ki was > 10 µM.
`C[C@@H]1SC(c2ccccc2)=N[C@@H]1Cc1c[nH]cn1` (relative stereo) showed a Ki of 1.6 µM.

What follows are compounds tested against 5-hydroxytryptamine receptor 1E (Homo sapiens, UniProt P28566) (assay: Displacement of [3H]5-HT from human 5-HT1E receptor expressed in HEK cells after 90 mins by microbeta scintillation counting analysis).
5-hydroxytryptamine receptor 1E, sequence (P28566 whole entry): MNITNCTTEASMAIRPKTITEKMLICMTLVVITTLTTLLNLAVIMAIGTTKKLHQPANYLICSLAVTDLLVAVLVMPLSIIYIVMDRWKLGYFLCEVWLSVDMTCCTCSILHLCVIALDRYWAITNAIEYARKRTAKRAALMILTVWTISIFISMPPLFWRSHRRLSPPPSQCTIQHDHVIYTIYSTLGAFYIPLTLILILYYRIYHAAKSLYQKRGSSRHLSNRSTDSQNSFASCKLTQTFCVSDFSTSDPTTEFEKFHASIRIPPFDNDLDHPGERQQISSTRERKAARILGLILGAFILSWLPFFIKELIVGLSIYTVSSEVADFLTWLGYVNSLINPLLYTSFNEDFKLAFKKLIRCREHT
Type: cell-based
In the case of `COC(=O)[C@H](Cc1cnc[nH]1)NC(=O)[C@@H]1N=C(c2ccccc2O)S[C@@H]1C`, the Ki is reported as 4.6 µM.
In the case of `CNc1ccccc1C1=N[C@@H](CO)[C@H](C)S1` (relative stereo), the Ki is reported as > 10 µM.
`Oc1ccccc1C1=N[C@@H]2CCC[C@@H]2S1` (racemic) was tested, and the Ki was > 10 µM.
`C[C@@H]1SC(c2ccccc2)=N[C@@H]1Cc1c[nH]cn1` (relative stereo) gave a Ki of 4 µM.

Each compound was assayed against 5-hydroxytryptamine receptor 2A (Homo sapiens, UniProt P28223) (assay: Displacement of [3H]Ketanserin from 5-HT2A (unknown origin) receptor after 90 mins by microbeta scintillation counting analysis).
5-hydroxytryptamine receptor 2A, sequence (P28223 whole entry): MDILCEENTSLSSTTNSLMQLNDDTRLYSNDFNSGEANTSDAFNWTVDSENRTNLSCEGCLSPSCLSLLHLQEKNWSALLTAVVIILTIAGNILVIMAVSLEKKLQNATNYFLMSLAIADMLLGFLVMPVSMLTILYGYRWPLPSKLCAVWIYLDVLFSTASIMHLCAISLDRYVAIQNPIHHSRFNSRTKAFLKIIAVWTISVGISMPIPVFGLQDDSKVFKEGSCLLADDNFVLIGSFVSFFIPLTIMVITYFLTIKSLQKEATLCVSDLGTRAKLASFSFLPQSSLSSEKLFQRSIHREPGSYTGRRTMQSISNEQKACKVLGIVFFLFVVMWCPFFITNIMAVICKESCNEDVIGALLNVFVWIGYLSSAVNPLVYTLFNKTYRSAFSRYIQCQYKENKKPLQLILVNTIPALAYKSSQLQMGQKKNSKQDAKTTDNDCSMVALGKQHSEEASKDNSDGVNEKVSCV
With `CNc1ccccc1C1=N[C@@H](CO)[C@H](C)S1` (relative stereo) the Ki was > 10 µM.
With `Oc1ccccc1C1=N[C@@H]2CCC[C@@H]2S1` (racemic) the Ki was > 10 µM.

The compounds below were run against T2, 5-hydroxytryptamine receptor 2C (Homo sapiens, UniProt P28335) (assay: Displacement of [3H]-Mesulergine from human 5-HT2C receptor expressed in HEKT cells after 90 mins by microbeta scintillation counting analysis).
T2 sequence (P28335 whole entry): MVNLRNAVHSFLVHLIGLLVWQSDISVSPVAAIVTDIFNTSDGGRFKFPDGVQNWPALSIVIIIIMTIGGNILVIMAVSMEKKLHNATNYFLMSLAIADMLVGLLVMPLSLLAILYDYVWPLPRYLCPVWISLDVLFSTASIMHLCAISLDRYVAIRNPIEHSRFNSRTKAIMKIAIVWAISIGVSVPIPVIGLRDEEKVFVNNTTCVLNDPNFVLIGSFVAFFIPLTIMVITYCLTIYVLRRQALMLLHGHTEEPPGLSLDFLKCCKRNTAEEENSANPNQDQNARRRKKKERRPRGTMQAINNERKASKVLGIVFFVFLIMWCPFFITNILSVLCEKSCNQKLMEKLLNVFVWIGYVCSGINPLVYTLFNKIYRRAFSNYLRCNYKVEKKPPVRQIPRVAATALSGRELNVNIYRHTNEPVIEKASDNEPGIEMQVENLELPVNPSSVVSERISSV
Type: cell-based
With `COC(=O)[C@H](Cc1cnc[nH]1)NC(=O)[C@@H]1N=C(c2ccccc2O)S[C@@H]1C` the Ki was 0.88 µM.
Work on `CNc1ccccc1C1=N[C@@H](CO)[C@H](C)S1` (relative stereo) yielded a Ki of 1.9 µM.
For `Oc1ccccc1C1=N[C@@H]2CCC[C@@H]2S1` (racemic), the Ki was > 10 µM.
Compound `C[C@@H]1SC(c2ccccc2)=N[C@@H]1Cc1c[nH]cn1` (relative stereo) has a Ki of 0.75 µM.

The compounds below were run against T3, 5-hydroxytryptamine receptor 3A (Homo sapiens, UniProt P46098) (assay: Displacement of [3H]-GR65630 from human 5-HT3 receptor expressed in HEKT cells after 90 mins by microbeta scintillation counting analysis).
T3 sequence (P46098 whole entry): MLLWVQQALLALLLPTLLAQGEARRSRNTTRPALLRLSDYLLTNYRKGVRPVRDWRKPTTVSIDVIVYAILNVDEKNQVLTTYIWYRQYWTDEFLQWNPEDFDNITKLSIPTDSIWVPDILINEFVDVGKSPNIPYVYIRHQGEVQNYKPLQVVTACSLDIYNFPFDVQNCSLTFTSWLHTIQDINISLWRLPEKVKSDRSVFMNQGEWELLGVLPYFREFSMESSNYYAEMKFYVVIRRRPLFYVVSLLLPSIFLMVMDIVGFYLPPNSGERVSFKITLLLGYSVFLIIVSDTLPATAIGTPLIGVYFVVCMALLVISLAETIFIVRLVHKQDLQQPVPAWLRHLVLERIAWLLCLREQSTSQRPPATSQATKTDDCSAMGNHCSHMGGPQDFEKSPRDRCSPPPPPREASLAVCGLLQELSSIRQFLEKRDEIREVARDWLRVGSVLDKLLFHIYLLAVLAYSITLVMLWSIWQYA
Type: cell-based
In the case of `COC(=O)[C@H](Cc1cnc[nH]1)NC(=O)[C@@H]1N=C(c2ccccc2O)S[C@@H]1C`, the Ki is reported as 3.1 µM.
In the case of `CNc1ccccc1C1=N[C@@H](CO)[C@H](C)S1` (relative stereo), the Ki is reported as 3.6 µM.
In the case of `Oc1ccccc1C1=N[C@@H]2CCC[C@@H]2S1` (racemic), the Ki is reported as > 10 µM.
For `C[C@@H]1SC(c2ccccc2)=N[C@@H]1Cc1c[nH]cn1` (relative stereo), the Ki was 0.077 µM.

These compounds were tested against 5-hydroxytryptamine receptor 5A (Homo sapiens, UniProt P47898) (assay: Displacement of [3H]-LSD from human 5-HT5A receptor expressed in Flp-In CHO cells after 90 mins by microbeta scintillation counting analysis).
5-hydroxytryptamine receptor 5A, sequence (P47898 whole entry): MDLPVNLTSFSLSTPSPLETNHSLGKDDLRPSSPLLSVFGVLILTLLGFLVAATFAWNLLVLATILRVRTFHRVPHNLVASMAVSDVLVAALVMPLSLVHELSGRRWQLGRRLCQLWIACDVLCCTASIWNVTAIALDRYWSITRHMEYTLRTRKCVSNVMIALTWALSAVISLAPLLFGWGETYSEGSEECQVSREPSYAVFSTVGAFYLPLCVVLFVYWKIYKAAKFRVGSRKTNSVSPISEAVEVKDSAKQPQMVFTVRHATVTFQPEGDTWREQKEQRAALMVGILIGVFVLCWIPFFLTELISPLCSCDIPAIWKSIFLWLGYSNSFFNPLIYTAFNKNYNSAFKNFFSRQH
Type: cell-based
For `COC(=O)[C@H](Cc1cnc[nH]1)NC(=O)[C@@H]1N=C(c2ccccc2O)S[C@@H]1C`, the Ki was > 10 µM.
With `CNc1ccccc1C1=N[C@@H](CO)[C@H](C)S1` (relative stereo) the Ki was > 10 µM.
For `Oc1ccccc1C1=N[C@@H]2CCC[C@@H]2S1` (racemic), the Ki was > 10 µM.
`C[C@@H]1SC(c2ccccc2)=N[C@@H]1Cc1c[nH]cn1` (relative stereo) was tested, and the Ki was 6.8 µM.

Each compound was assayed against 5-hydroxytryptamine receptor 6 (Homo sapiens, UniProt P50406) (assay: Displacement of [3H]-LSD from human 5-HT6 receptor expressed in HEK cells after 90 mins by microbeta scintillation counting analysis).
5-hydroxytryptamine receptor 6, sequence (P50406 whole entry): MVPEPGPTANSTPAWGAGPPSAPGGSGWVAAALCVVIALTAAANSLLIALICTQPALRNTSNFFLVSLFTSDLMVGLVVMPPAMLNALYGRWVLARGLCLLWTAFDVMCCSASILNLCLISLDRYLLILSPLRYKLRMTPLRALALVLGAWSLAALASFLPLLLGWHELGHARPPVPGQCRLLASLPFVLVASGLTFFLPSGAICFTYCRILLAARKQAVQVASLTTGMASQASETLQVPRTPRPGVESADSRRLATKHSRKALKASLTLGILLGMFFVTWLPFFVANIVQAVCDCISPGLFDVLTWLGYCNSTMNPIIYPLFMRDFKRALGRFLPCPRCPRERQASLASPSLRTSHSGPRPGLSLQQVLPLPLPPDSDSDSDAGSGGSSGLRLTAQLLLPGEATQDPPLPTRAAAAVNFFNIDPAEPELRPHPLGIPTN
Type: cell-based
In the case of `COC(=O)[C@H](Cc1cnc[nH]1)NC(=O)[C@@H]1N=C(c2ccccc2O)S[C@@H]1C`, the Ki is reported as > 10 µM.
`CNc1ccccc1C1=N[C@@H](CO)[C@H](C)S1` (relative stereo) was tested, and the Ki was > 10 µM.
For `Oc1ccccc1C1=N[C@@H]2CCC[C@@H]2S1` (racemic), the Ki was > 10 µM.
For `C[C@@H]1SC(c2ccccc2)=N[C@@H]1Cc1c[nH]cn1` (relative stereo), the Ki was > 10 µM.

These compounds were tested against T4, 5-hydroxytryptamine receptor 7 (Homo sapiens, UniProt P34969) (assay: Displacement of [3H]-LSD from human 5-HT7A receptor expressed in HEK cells after 90 mins by microbeta scintillation counting analysis).
T4 sequence (P34969 whole entry): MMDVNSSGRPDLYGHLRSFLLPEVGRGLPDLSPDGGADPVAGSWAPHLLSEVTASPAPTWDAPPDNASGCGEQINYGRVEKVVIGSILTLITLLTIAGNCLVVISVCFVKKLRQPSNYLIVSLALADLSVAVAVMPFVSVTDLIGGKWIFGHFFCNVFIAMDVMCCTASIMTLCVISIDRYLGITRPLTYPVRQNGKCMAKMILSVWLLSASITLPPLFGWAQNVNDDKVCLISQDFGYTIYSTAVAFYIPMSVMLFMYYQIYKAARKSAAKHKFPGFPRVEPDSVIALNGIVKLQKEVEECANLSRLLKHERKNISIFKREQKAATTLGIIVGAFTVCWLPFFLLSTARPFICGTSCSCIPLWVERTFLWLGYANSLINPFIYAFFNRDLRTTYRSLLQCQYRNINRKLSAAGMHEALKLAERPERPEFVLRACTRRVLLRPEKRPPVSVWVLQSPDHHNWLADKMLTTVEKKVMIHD
Type: cell-based
With `COC(=O)[C@H](Cc1cnc[nH]1)NC(=O)[C@@H]1N=C(c2ccccc2O)S[C@@H]1C` the Ki was > 10 µM.
`CNc1ccccc1C1=N[C@@H](CO)[C@H](C)S1` (relative stereo) was tested, and the Ki was > 10 µM.
With `Oc1ccccc1C1=N[C@@H]2CCC[C@@H]2S1` (racemic) the Ki was > 10 µM.
For `C[C@@H]1SC(c2ccccc2)=N[C@@H]1Cc1c[nH]cn1` (relative stereo), the Ki was 3.3 µM.

Each compound was assayed against T1, 5-hydroxytryptamine receptor 2B (assay: Antagonist activity at 5-HT2B receptor (unknown origin) by calcium release assay).
Type: functional
For `COC(=O)[C@H](Cc1cnc[nH]1)NC(=O)[C@@H]1N=C(c2ccccc2O)S[C@@H]1C`, the IC50 was > 10 µM.
For `C[C@@H]1SC(c2ccccc2)=N[C@@H]1Cc1c[nH]cn1` (relative stereo), the IC50 was > 10 µM.

These compounds were tested against T4, 5-hydroxytryptamine receptor 7 (assay: Antagonist activity at 5-HT7A receptor (unknown origin) by Tango assay).
For `C[C@@H]1SC(c2ccccc2)=N[C@@H]1Cc1c[nH]cn1` (relative stereo), the IC50 was > 10 µM.

These compounds were tested against T5, 5-hydroxytryptamine receptor 1A (Homo sapiens, UniProt P08908) (assay: Antagonist activity at 5-HT1A receptor (unknown origin) by Tango assay).
T5 sequence (P08908 whole entry): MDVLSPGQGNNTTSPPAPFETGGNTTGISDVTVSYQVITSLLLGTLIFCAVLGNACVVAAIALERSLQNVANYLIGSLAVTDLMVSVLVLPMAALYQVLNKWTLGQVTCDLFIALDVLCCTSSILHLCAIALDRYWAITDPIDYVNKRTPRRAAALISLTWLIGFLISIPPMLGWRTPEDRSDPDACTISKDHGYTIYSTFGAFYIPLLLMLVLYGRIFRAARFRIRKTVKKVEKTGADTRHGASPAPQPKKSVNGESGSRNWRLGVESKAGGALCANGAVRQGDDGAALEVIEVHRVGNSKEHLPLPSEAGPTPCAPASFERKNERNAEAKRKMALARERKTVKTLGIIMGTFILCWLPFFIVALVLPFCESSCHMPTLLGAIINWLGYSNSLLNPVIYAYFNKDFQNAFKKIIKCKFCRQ
Type: functional
In the case of `COC(=O)[C@H](Cc1cnc[nH]1)NC(=O)[C@@H]1N=C(c2ccccc2O)S[C@@H]1C`, the IC50 is reported as > 10 µM.
With `C[C@@H]1SC(c2ccccc2)=N[C@@H]1Cc1c[nH]cn1` (relative stereo) the IC50 was > 10 µM.
